Values quoted from earlier work as cited in patent US11466019B2, “Triazolo[4,5-d] pyramidine derivatives and their use as purine receptor antagonists” (Vernalis (R&D) Limited, priority 2008, dated 2022).

Tests used:
cataleptic responses = details: cited from earlier work
Parkinsonian patients = details: cited from earlier work

SMILES | anticataleptic effects of a subthreshold dose of L-DOPA plus benserazide (cataleptic responses; combination) | catalepsy induced by haloperidol and reserpine (cataleptic responses; in vivo) | cataleptic responses induced by intracerebroventricular administration of CGS 21680 (cataleptic responses; oral administration) | mean objective disability scores (Parkinsonian patients; 15 Parkinsonian patients, treated for up to 12 weeks) | patients who reported moderate or marked subjective improvement (Parkinsonian patients; of 15 Parkinsonian patients, treated for up to 12 weeks) | serum theophylline levels (Parkinsonian patients; slow release oral theophylline preparation, after one week, Parkinsonian patients)
CCCn1c(=O)c2c(nc(/C=C/c3ccc(OC)c(OC)c3)n2C)n(CCC)c1=O [KF 17837, E-8-(3,4dimethoxystyryl)-1,3-dipropyl-7-methylxanthine] | potentiated the anticataleptic effects | reduced the catalepsy | significantly ameliorated |  |  | 
Cn1c(=O)c2[nH]cnc2n(C)c1=O [theophylline, 1,3-dimethylxanthine] |  |  |  | significant improvements | 11 | 4.44 mg/L
